Laboratory results from patent publication US8507545B2, “Cytotoxic T cell activator comprising EP4 agonist” (National University Corporation, Hamamatsu University …, priority 2007, dated 2013).

Tests used:
[1] = system: TRP-2-specific CTLs; experiment: Activation of cytotoxic T cells in isolated Langerhans cells co-cultured with lymphocytes; format: cell-based, C57BL/6(B6) mouse
Protocol: A given area of an auricle epidermal sheet was removed from the corneal layer of one auricle of each C57BL/6(B6) mouse, and trypsinized to yield an epidermal cell suspension. The epidermal cell suspension obtained was subjected to panning using an antibody specific for I-A^b antigen to isolate epidermal Langerhans cells. After each test substance (TRP-2 (concentration; 10 μg/mL) and Compound A-(1) (1 μM)) was added to the Langerhans cells isolated (cell density; 10^5 cells per mL), the cells were cultured with a medium (cRPMI1640 medium; Sigma-Aldrich Japan). Half a day later, the cells were co-cultured with splenocytic lymphocytes isolated from […] for 7 days. Subsequently, by a flowcytometric analysis (FACScaliber; Becton, Dickinson and Company.) using a tetramer (Medical & Biological Laboratories Co., Ltd.), the frequency of TRP-2-specific CTLs was determined relative to the total number of mononucleocytes in the medium as 100. Three experimental groups were established: (1) a group with no treatment, (2) a group with the addition of TRP-2, and (3) a group with the addition of both TRP-2 and Compound A-(1).

[2] = system: B16 melanoma cells; experiment: Melanoma growth suppressing action; format: in vivo, B6 mouse; details: for tumor diameter compared with the experimental group (1): FIG. 1
Protocol: The corneal layer was removed from the right auricle of each B6 mouse by TS in the same manner as Example 1, and test substances (TRP-2 and Compound A-(1)) were applied there; 2 weeks later, the left auricle was treated in the same manner. The test substances applied to both ears were used in the same combination; TRP-2 was applied at 10 μg for one side of each auricle, and Compound A-(1) was applied at 20 μl, of 100 μM solution for one side of each auricle. Four days after the above-described treatment, each mouse received 2×10^5 B16 melanoma cells (RIKEN's Cell Bank) by subcutaneous transplantation, and examined for tumor growth. Experimental groups were established as in Example 1(1) (5 animals in each group).
Tumor diameter (mm), as an index of tumor growth, was measured in each group at various days after inoculation of B16 melanoma cells; the results are shown in FIG. 1.

[3] = TS followed by application of Compound A-(1) alone, experimental group (3)
[4] = TS followed by application of TRP-2 and Compound A-(1), experimental group (4)

SMILES: COCc1cccc(C[C@H](O)/C=C/[C@H]2[C@H](O)CC(=O)[C@@H]2SCCCSCC(=O)O)c1 [Compound A-(1), 11α,15α,-dihydroxy-9-oxo-16-(3-methoxymethylphenyl)-17,18,19,20-tetranol-3,7-dithiaprost-13E-enoic acid]
- Ratio of TRP-2-specific CTLs ([1]; addition of both TRP-2 (10 μg/mL) and Compound A-(1) (1 μM), 7 days co-culture, relative to total mononucleocytes in the medium as 100): 6.6
- action of inducing TRP-2-specific CTLs compared with TRP-2 ([1]; isolated Langerhans cells): equivalent
- tumor growth rates [2, 3]: decreased
- tumor diameter compared with the experimental group (1) [2, 3]: smaller
- tumor growth rates [2, 4]: decreased
- take of B16 melanoma cells ([2]; TS followed by application of TRP-2 and Compound A-(1), experimental group (4), 5 animals): did not take in any animals
- tumor diameter compared with the experimental group (1) [2, 4]: smaller
